In PMC6934184, “Selective DNA-PKcs inhibition extends the therapeutic index of localized radiotherapy and chemotherapy” (The Journal of Clinical Investigation, 2019):

Target: T1, CDK1/cyclin A2 (Homo sapiens, UniProt P06493)
T1 construct: purchased Thermo Fisher Scientific (Life Technologies) SelectScreen
Test: SelectScreen LanthaScreen
Format: binding
Details: 1 µM
Method in brief: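 SelectScreen broad panel; activity (Z'LYTE, Adapta) plus binding formats. ATP: Km app for CSF1R Z'LYTE; 10 for CAMK1 Adapta. Readout = % per kinase.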

T1 sequence (P06493 whole entry): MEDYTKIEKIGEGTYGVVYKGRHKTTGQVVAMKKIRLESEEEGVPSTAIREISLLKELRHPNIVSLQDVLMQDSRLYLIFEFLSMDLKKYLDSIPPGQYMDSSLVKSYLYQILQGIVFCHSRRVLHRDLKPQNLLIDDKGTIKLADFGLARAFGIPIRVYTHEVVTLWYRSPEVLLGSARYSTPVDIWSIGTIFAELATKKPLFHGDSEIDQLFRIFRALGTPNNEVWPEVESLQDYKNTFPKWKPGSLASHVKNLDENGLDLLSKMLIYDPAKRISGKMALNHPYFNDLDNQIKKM
T1 sequence (P20248 whole entry partner): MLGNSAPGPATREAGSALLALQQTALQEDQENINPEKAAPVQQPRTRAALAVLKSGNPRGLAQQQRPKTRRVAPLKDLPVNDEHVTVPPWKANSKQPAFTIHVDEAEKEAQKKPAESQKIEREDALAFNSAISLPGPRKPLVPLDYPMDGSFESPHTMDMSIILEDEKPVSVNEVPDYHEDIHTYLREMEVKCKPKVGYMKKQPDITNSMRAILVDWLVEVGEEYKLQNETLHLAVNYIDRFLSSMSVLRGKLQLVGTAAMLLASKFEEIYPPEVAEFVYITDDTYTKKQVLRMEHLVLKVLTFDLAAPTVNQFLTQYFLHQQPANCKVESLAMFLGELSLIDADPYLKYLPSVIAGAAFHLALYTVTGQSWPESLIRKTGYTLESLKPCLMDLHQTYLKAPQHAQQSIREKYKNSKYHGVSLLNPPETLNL

SMILES: CN(C(=O)CN1CCOCC1)c1ccc2sc3c(-c4cccc5c(=O)cc(N6CC7CCC(C6)O7)oc45)cccc3c2c1 [NU5455]
- % displacement: 3.3%
